In patent US12103915B2, “TEAD inhibitors and methods of uses thereof” (Insilico Medicine IP Limited, priority 2022, dated 2024):
Where two headings read alike, the source gives them in different places.

Experiments:
NCI-H226 cells = assay: Cell growth assay (CellTiter-Glo); type: cell-based, human; details: 7 days treatment, CellTiter-Glo luminescence, read-out: H226 CTG IC50
Description: Example A: Cell Growth Assay
CellTiter-Glo reagent (CTG reagent, Promega, G7573).
[…] Also seeding an extra plate as Day 0 control measurement. The microplates were incubated at 37° C., 5% CO2 overnight.
Compounds were 3-fold serial diluted in DMSO and final top-concentration was […], 10 points. 0.3% DMSO as vehicle control. In addition, […] of CTG reagent was added into the extra plate and incubated at room temperature for 30 minutes and detected luminescence signals as Day 0 control by using EnVision (PerkinElmer, 2104 Mutilabel Reader).
Incubated other compounds treated plates at 37° C. for another 7 days and […] of CTG reagent was added into the plates and incubated at room temperature for 30 minutes and detected luminescence signals.
Day 0 luminescence signals were used as negative control or baseline. • Signalday0=average luminescence signals of Day 0 control cells. • Signalblank control=average luminescence signals of blank control. • SignalDMSO vehicle control=average luminescence signals of Day 7 DMSO vehicle control cells. • Signalcpds treatment=luminescence signals of Day 7 compounds treatment cells. Inhibition %=1−(Signalcpds treatment−Signalblank control)/(SignalDMSO vehicle control−Signalblank control)*100.
(Inhibitory concentration 50% (IC50) and maximum inhibition % were calculated using dose response curves.

TEAD2 = TEAD2 (Homo sapiens, UniProt Q15562); assay: Thermal shift assay TEAD2; type: binding
Description: (§1) Example B: Thermal Shift Assay
(§2) 1) Prepare a fresh dilution of Protein Thermal Shift™ Dye (Applied Biosystems, 1000×) to 8× by […].
(§3) 2) To ensure the same DMSO concentration, the compounds were diluted as follows: Prepare 10 mM stock solution of compounds;
(§4) The final DMSO concentration was 0.1%
(§5) 10 μM: Diluting stock solution to 100 μM by using PBS.
(§6) 1 μM: Diluting stock solution to 1 mM by using DMSO, then dilute to 10 μM by using PBS.
(§7) TEAD1: the stock concentration was 2.9 mg/ml; the final concentration was 0.2 mg/ml. TEAD2: the stock concentration was 1.8 mg/ml; the final concentration was 0.08 mg/ml.
(§8) 4) Place the appropriate reaction plate or tubes on ice, then prepare the protein melt reactions:
(§9) 5) Pipet each reaction up and down 10 times to mix well.
(§10) 6) Seal the plate with MicroAmp™ Optical Adhesive Film, spin it at 1000 rpm for 1 minute.
(§11) 7) Set up and run on the qPCR instrument.
(§12) Using thermal Shift™ Software v1.3 to analysis.

TEAD3 = TEAD3 (Homo sapiens, UniProt Q99594); assay: Thermal shift assay TEAD3; type: binding
Description: as §1, §2, §3, §4, §5, §6
TEAD3: the stock concentration was 2.4 mg/ml; the final concentration was 0.1 mg/ml.
as §8, §9, §10, §11, §12

TEAD1 = TEAD1 (Homo sapiens, UniProt P28347); assay: Thermal shift assay TEAD1; type: binding
Description: as §1, §2, §3, §4, §5, §6, §7, §8, §9, §10, §11, §12

TEAD4 = TEAD4 (Homo sapiens, UniProt Q15561); assay: Thermal shift assay TEAD4; type: binding
Description: as §1, §2, §3, §4, §5, §6
TEAD4: the stock concentration was 2.3 mg/ml; the final concentration was 0.1 mg/ml.
as §8, §9, §10, §11, §12

TEAD4, sequence (Q15561 whole entry, species assumed): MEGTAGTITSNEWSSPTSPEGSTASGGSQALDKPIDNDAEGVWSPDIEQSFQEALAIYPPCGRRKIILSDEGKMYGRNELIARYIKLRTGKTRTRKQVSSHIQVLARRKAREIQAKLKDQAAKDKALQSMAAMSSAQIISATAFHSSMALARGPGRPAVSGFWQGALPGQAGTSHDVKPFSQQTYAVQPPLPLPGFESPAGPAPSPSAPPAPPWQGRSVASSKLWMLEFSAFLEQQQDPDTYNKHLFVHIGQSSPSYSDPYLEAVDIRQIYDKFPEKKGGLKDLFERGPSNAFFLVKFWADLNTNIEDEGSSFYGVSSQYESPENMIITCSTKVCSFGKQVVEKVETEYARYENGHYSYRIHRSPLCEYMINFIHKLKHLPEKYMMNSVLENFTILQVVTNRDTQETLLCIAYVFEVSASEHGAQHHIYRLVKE
TEAD3, sequence (Q99594 whole entry, species assumed): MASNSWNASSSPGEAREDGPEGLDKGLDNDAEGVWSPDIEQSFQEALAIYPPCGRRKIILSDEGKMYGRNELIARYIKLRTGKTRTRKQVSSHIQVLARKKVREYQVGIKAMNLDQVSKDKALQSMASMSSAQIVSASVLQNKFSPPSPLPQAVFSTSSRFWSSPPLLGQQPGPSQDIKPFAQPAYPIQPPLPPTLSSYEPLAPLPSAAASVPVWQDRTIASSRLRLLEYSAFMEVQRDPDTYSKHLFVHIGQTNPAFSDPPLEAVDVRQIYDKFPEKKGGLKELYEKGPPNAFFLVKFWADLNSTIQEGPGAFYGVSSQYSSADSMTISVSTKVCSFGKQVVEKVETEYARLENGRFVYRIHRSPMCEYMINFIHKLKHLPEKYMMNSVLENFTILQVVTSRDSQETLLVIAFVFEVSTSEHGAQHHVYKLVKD
TEAD2, sequence (Q15562 whole entry, species assumed): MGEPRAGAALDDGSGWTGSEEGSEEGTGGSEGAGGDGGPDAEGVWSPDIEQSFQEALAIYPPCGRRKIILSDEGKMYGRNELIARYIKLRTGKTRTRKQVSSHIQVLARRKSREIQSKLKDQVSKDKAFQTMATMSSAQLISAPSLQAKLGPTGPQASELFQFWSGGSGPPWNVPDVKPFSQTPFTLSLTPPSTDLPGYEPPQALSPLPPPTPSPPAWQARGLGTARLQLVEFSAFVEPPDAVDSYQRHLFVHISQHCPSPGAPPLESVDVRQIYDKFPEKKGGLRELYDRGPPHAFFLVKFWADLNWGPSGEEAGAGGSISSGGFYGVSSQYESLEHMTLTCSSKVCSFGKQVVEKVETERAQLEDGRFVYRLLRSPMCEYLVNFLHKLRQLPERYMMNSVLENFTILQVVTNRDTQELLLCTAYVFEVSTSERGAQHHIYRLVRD
TEAD1, sequence (P28347 whole entry, species assumed): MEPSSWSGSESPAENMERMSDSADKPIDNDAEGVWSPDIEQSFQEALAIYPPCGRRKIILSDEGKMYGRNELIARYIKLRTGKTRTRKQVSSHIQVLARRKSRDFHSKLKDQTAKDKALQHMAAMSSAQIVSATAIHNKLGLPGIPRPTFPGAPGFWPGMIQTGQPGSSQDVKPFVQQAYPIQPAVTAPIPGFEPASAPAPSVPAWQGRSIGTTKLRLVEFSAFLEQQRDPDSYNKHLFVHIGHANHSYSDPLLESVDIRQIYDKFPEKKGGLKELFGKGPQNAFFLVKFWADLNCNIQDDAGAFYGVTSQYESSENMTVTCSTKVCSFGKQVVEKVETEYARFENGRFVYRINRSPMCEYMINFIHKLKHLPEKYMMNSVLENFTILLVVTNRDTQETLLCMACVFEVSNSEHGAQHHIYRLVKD

Row | IC50 (NCI-H226 cells; Homo sapiens, NCI-H226, 168 h) | TEAD2 ΔTm (TEAD2) | TEAD3 ΔTm (TEAD3) | TEAD1 ΔTm (TEAD1) | TEAD4 ΔTm (TEAD4) | IC50 (NCI-H226 cells) | Structure (SMILES)
1 | 1000 to 30000 nM |  |  |  |  |  | Cn1ncc2cc(-c3ccc(C(F)(F)F)cc3)cc(C3C[C@H]3C(=O)O)c21 (mixture of isomers) [Example 3]
2 | 1000 to 30000 nM | 1.6 °C | 1.1 °C | 5 °C | 4.2 °C |  | O=C(O)[C@@H]1CC1c1cc(-c2ccc(C(F)(F)F)cc2)cc2cn(-c3cccnc3)nc12 (mixture of isomers) [Example 4]
3 | 100 to 500 nM |  |  |  |  |  | Cn1cc2c(C3C[C@H]3C(=O)O)cc(-c3ccc(C(F)(F)F)cc3)cc2n1 (mixture of isomers) [Example 6]
4 | < 100 nM | 9.4 °C | 2.3 °C | 7.7 °C | 11.5 °C |  | Cn1cc2cc(-c3ccc(OC(F)(F)F)cc3)cc(C3C[C@H]3C(=O)O)c2n1 (mixture of isomers) [Example 12]
5 | 1000 to 30000 nM | 0.3 °C | 0 °C | 0.4 °C | 0.2 °C |  | O=C(O)[C@@H]1CC1c1cc(-c2ccc(C(F)(F)F)cc2)cc2scnc12 (mixture of isomers) [Example 14]
6 | 1000 to 30000 nM | 3.4 °C | 0.9 °C | 1.9 °C | 1.8 °C |  | Cn1ncc2c(C3C[C@H]3C(=O)O)cc(OCc3ccc(C(F)(F)F)cc3)cc21 (mixture of isomers) [Example 19]
7 | < 100 nM | 5.5 °C | 1.1 °C | 4.5 °C | 5.7 °C |  | CNC(=O)[C@@H]1CC1c1cc(-c2ccc(C(F)(F)F)cc2)cc2c1=NC(C)N=2 (mixture of isomers) [Example 22]
8 | 100 to 500 nM | 0.5 °C | 0.3 °C | 0.6 °C | 0.6 °C |  | CC(C)NC(=O)[C@@H]1C[C@H]1c1cc(-c2ccc(C(F)(F)F)cc2)cc2c1cnn2C (racemic) [Example 27]
9 | 100 to 500 nM | 0.5 °C | 0.5 °C | 3.7 °C | 2.4 °C |  | CC(NC(=O)[C@@H]1C[C@H]1c1cc(-c2ccc(C(F)(F)F)cc2)cc2c1cnn2C)c1ccccn1 (mixture of isomers) [Example 28]
10 | 500 to 1000 nM |  |  |  |  |  | Cn1ncc2c([C@@H]3C[C@H]3C(=O)NCCO)cc(-c3ccc(C(F)(F)F)cc3)cc21 (racemic) [Example 29]
11 | 100 to 500 nM | 0.8 °C | 0.1 °C | 1.6 °C | 0.9 °C |  | COCCNC(=O)[C@@H]1C[C@H]1c1cc(-c2ccc(C(F)(F)F)cc2)cc2c1cnn2C (racemic) [Example 30]
12 | 100 to 500 nM | 0.9 °C | 0.2 °C | 2.1 °C | 1.3 °C |  | CNC(=O)[C@@H]1C[C@H]1c1cc(-c2ccc(C(F)(F)F)cc2)cc2c1cnn2C(F)F (racemic) [Example 32]
13 | < 100 nM | 6.7 °C | 0.6 °C | 4 °C | 6.5 °C |  | CNC(=O)[C@@H]1CC1c1cc(-c2ccc(OC(F)(F)F)cc2)cc2cn(C)nc12 (mixture of isomers) [Example 33]
14 | < 100 nM | 12.7 °C | 6.6 °C | 8.5 °C | 10.3 °C |  | CNC(=O)[C@@H]1CC1c1cc(Oc2ccc(C(F)(F)F)cc2)cc2cn(C)nc12 (mixture of isomers) [Example 34]
15 | < 100 nM | 11.2 °C | 5.4 °C | 5.4 °C | 6.1 °C |  | Cn1ncc2c(C3C[C@H]3C(N)=O)cc(Oc3ccc(C(F)(F)F)cc3)cc21 (mixture of isomers) [Example 35]
16 | < 100 nM | 12.9 °C | 4.6 °C | 6.8 °C | 4.3 °C |  | CNC(=O)[C@@H]1CC1c1cc(Oc2ccc(C(F)(F)F)cc2)cc2c1cnn2C (mixture of isomers) [Example 36]
17 | 1000 to 30000 nM |  |  |  |  |  | Cn1cc2cc(Oc3ccc(C(F)(F)F)cc3)cc([C@@H]3C[C@H]3C(=O)N3CC(O)C3)c2n1 (single isomer, unassigned) [Example 58a]
18 | < 100 nM |  |  |  |  |  | C[C@H](C#N)NC(=O)[C@@H]1C[C@H]1c1cc(Oc2ccc(C(F)(F)F)cc2)cc2cn(C)nc12 (single isomer, unassigned) [Example 68]
19 | 1000 to 30000 nM |  |  |  |  |  | Cc1cn2cc(Oc3ccc(C(F)(F)F)cc3)cc(C3C[C@H]3C(=O)N3CC(O)C3)c2n1 (single isomer, unassigned) [Example 85a]

Continued, molecule first:

Row | Structure (SMILES) | IC50 (NCI-H226 cells; Homo sapiens, NCI-H226, 168 h) | TEAD2 ΔTm (TEAD2) | TEAD3 ΔTm (TEAD3) | TEAD1 ΔTm (TEAD1) | TEAD4 ΔTm (TEAD4) | IC50 (NCI-H226 cells)
20 | O=C(O)[C@@H]1CC1c1cc(-c2ccc(C(F)(F)F)cc2)cc2cn[nH]c12 (mixture of isomers) [Example 1] | 1000 to 30000 nM |  |  |  |  | 
21 | O=C(O)[C@@H]1CC1c1cc(-c2ccc(C(F)(F)F)cc2)cc2[nH]ncc12 (mixture of isomers) [Example 5] | 1000 to 30000 nM |  |  |  |  | 
22 | Cn1ncc2c(C3C[C@H]3C(=O)O)cc(-c3ccc(C(F)(F)F)cc3)cc21 (mixture of isomers) [Example 7] |  | 5.7 °C | 2 °C | 5.7 °C | 7.2 °C | 100 to 500 nM
23 | Cn1ncc2c(C3C[C@H]3C(=O)O)cc(-c3ccc(C(F)(F)F)cc3)cc21 (mixture of isomers) [Example 8] |  |  |  |  |  | 1000 to 30000 nM
24 | O=C(O)[C@@H]1CC1c1cc(-c2ccc(C(F)(F)F)cc2)cc2c1cnn2C(F)F (mixture of isomers) [Example 9] | 100 to 500 nM | 4.1 °C | 1.2 °C | 5.8 °C | 5.6 °C | 
25 | Cn1ncc2c(C3C[C@H]3C(=O)O)cc(-c3ccc(OC(F)(F)F)cc3)cc21 (mixture of isomers) [Example 10] | 100 to 500 nM | 7.7 °C | 2 °C | 6 °C | 7.3 °C | 
26 | O=C(O)[C@@H]1CC1c1cc(-c2ccc(C(F)(F)F)cc2)cc2cccnc12 (mixture of isomers) [Example 13] | < 100 nM | 6.6 °C | 1.8 °C | 7.7 °C | 8.3 °C | 
27 | CN1Cc2cc(-c3ccc(C(F)(F)F)cc3)cc(C3C[C@H]3C(=O)O)c2C1=O (mixture of isomers) [Example 15] | 100 to 500 nM | 5.1 °C | 1.2 °C | 5 °C | 3.7 °C | 
28 | O=C(O)[C@@H]1CC1c1cn(-c2ccc(C(F)(F)F)cc2)c2cccnc12 (mixture of isomers) [Example 20] | 100 to 500 nM | 6.8 °C | 3.2 °C | 3.8 °C | 5.9 °C | 
29 | Cc1ccc2c(c1)c(C1C[C@H]1C(=O)O)cn2-c1ccc(C(F)(F)F)cc1 (mixture of isomers) [Example 21] | < 100 nM | 6.7 °C | 5.2 °C | 11 °C | 9.3 °C | 
30 | CCNC(=O)[C@@H]1CC1c1cc(-c2ccc(C(F)(F)F)cc2)cc2c1=NC(C)N=2 (mixture of isomers) [Example 23] | 100 to 500 nM | 3.5 °C | 0.7 °C | 4.7 °C | 6.5 °C | 
31 | Cn1ncc2c(C3C[C@H]3C(N)=O)cc(-c3ccc(C(F)(F)F)cc3)cc21 (mixture of isomers) [Example 25] | < 100 nM | 6.9 °C | 0.7 °C | 5.4 °C | 6.6 °C | 
32 | CN(C)C(=O)[C@@H]1CC1c1cc(-c2ccc(C(F)(F)F)cc2)cc2c1cnn2C (mixture of isomers) [Example 26] | 100 to 500 nM | 1.9 °C | 0.1 °C | 1.7 °C | 1.7 °C | 
33 | Cn1ncc2c([C@@H]3C[C@H]3C(=O)N3CC(O)C3)cc(-c3ccc(C(F)(F)F)cc3)cc21 (racemic) [Example 31] | 100 to 500 nM | 2.7 °C | 0 °C | 3 °C | 2.8 °C | 
34 | C=C(CS(=O)(=O)NC)c1cc(-c2ccc(C(F)(F)F)cc2)cc2c1cnn2C [Example 43] | 1000 to 30000 nM |  |  |  |  | 
